Data: patent US20140128357A1, “METHODS OF PRODUCING AND USING BRASSINOSTEROIDS TO PROMOTE GROWTH, REPAIR AND MAINTENANCE OF SKELETAL MUSCLE AND SKIN” (Rutgers University, priority 2010, published 2014)
Marks after values point to notes of the source that are not given here.

How the values were obtained:
[1] = system: TNF-α, TGF-β and ICAM-1 mRNA in wounds; assay: Cytokine and chemokine mRNA in wound tissue, qPCR; format: in vivo; settings: day 10 post-wounding, 10 μg/mouse topically
Experimental: Cutaneous would healing is characterized by an initial inflammatory response. To evaluate the effect of brassinosteroids on inflammation in wound healing, mRNA levels of proinflammatory cytokines TNF-α and TGF-β and an adhesion chemokine ICAM-1 were measured in the wound tissue of control and treated mice on day 10 post-wounding and treatment with HB, positive control (CGS-21680), or negative control (vehicle).
Total RNA was extracted from fibroblasts using Trizol (Invitrogen, Carlsbad, Calif.). RNA was quantified spectrophotometrically by absorbance measurements at 260 and 280 nm using the NanoDrop reader (NanoDrop Technologies, Wilmington, Del.). Quality of RNA was assessed by gel electrophoresis. RNA was then treated with DnaseI (Invitrogen, Carlsbad, Calif.) to remove traces of DNA contamination and the cDNAs were synthesized with 2.5 μg of RNA using Stratascript reverse transcriptase (Stratagene, Santa Clara, Calif.) according to the manufacturers' protocols. Quantitative PCR was performed in duplicate essentially as described previously (Komarnytsky et al., Int. J. Obes. 35: 236-43, 2011) using the following gene-specific primers (IDT, Coralville, Iowa) selected using the Primer Express 2.0 software (Applied Biosystems, Foster City, Calif.): β-actin, forward primer 5′-GGGAAATCGTGCGTGACATT-3′ (SEQ ID NO: 5), and reverse primer 5′-GCG GCA GTG GCC ATC TC-3′ (SEQ ID NO: 6). Target gene expression of the housekeeping gene β-actin was assigned a value of 1. Samples were subjected to a melting curve analysis to confirm the amplification specificity. The relative change in the […] with respect to the endogenous control gene was determined using 2ΔΔCT method (Winer et al., Anal. Biochem. 270: 41-9, 1999).

[2] = system: cutaneous wound in C57BL/6J mice; assay: Mouse cutaneous injury model of wound healing; format: in vivo; settings: 10 μg/mouse/day topically for 10 days
Experimental: Under volatile anesthesia (5% isoflurane to effect), the shoulder and back region of each animal was shaved. A sharp punch (ID 6 mm) over their lumbar spine was applied to remove the skin, including panniculus carnosus and adherent tissues. Test substances were administered topically (TOP), immediately following cutaneous injury, once daily for 10 consecutive days. […] Wounds were traced onto clear plastic sheets and were measured by use of an ImageJ program (rsbweb.nih.gov/ij/), online from the National Institutes of Health (NIH). ImageJ is a public domain, Java-based image processing program developed at the NIH. Time to wound closure was estimated by comparing the area of the wound undergoing treatment to the areas of the wound undergoing control treatments. The percent closure of the wound (%) was calculated, and wound half-closure time (the time at which 50% of the cutaneous wound is closed, CT50) was analyzed by linear regression using Graph-Prism (Graph Software USA). At the end of experiment (10 days after the induction of the wound), animals were euthanized by CO2 gas inhalation. Blood was collected by heart puncture. Wound tissue and muscle were collected for immunohistochemical analyses and wound healing factor assays. HB increased the percent of wound closure in vivo in a mouse model of wound closure (FIG. 13). […] Twenty seven six-week-old male C57BL/6J mice, obtained from the Jackson Laboratory (Bar Harbor, Me.), were housed in individual chambers in a room maintained at a constant temperature with 12 h light-dark cycle. Mice had free access to food and water. Mice were allowed to adapt to new conditions for seven days and handling the mice was performed daily during this time to reduce the stress of physical manipulation. Mice were randomized into groups (n=9) according to body weight one day prior to dosing. Under volatile anesthesia (5% isoflurane to effect), the shoulder and back region of each animal was shaved. A sharp punch (ID 6 mm) over lumbar spine was applied to remove the skin including panniculus carnosus and adherent tissues. […] Pharmacol. 77: 1117-1124, 2009) as a positive control) was administered topically, immediately following cutaneous injury, and then daily for 10 days. To investigate the kinetics of wound healing, wound size was photographed and measured every two days with ImageJ software (rsbweb.nih.gov/ij/). […] The percent closure of the wound (%) was calculated, and time at which 50% of the cutaneous wound was closed (CT50) was analyzed by linear regression. […] Wound sizes were photographed and measured every 2 days for 10 days. Wound closure (%) relative to day 1 was determined every 2 days, and CT50 was calculated by linear regression. […]

[3] = system: elastin mRNA in human neonatal dermal fibroblasts (HNDF); assay: Elastin gene expression in human dermal fibroblasts, qPCR; format: cell-based; settings: 16 h
Experimental: Human neonatal dermal fibroblasts (HNDF) were maintained in DMEM+10% FBS and were kept in a humidified 37° C. incubator with 5% CO2. Cells were plated at a density of 1×10^4 cells per well in a 24-well plate and incubated for 24 h, or until 100% confluency was reached. Subsequently, the media was removed and cells were washed with 500 μL PBS twice to remove detached cells or cell debris. HNDF were then treated for 16 h as follows: DMEM only, retinoic Acid 5 μM, retinoic acid 10 μM, Homocastasterone 5 μM and Homocastasterone 10 μM.
RNA was extracted from HNDF using Trizol reagent (Invitrogen) following manufacturer instructions. RNA was quantified spectrophotometrically by absorbance measurements at 260 nm and 280 nm using the NanoDrop system (NanoDrop Technologies, Wilmington, Del.). Quality of RNA was assessed by separation in gel-electrophoresis. To remove any traces of DNA contamination, RNA was then treated with Dnase I (Invitrogen) following the manufacturer guidelines. Complementary DNAs (cDNAs) were synthesized using 3.0 μg of RNA for each sample using Applied Biosystems High Capacity cDNA Reverse Transcription Kit following the manufacturer's protocol.
Quantitative RT-PCR (qPCR) amplifications were carried out in triplicate on an ABI 7300 Real-Time Detection System in a total volume of 25 μl containing 12.5 μl Brilliant SYBR® Green PCR master mix (Applied Biosystems), 5 μl of the 1:25 diluted cDNA, 0.5 μl of 6 μM gene-specific primers (IDT, Coralville, Iowa) and […] PCR-grade water. Primers were synthesized by Integrated DNA Technologies, Inc. (Coralville, Iowa, USA) as follows: β-actin, forward primer 5′-ACGTTGCTATCCAGGCTGTGCTAT-3′ (SEQ ID NO: 1), reverse primer 5′-CTCGGTGAGGATCTTCATGAGGTAGT-3′ (SEQ ID NO: 2); elastin, forward primer 5′-AAGCAGCAGCAAAGTTCGGT-3′ (SEQ ID NO: 3), and reverse primer 5′-ACTAAGCCTGCAGCAGCTCCATA-3′ (SEQ ID NO: 4). qPCR amplifications were performed on the 7300 Real Time PCR System (A&B Applied Biosystems) using 1 cycle at 50° C. for 2 min, 1 cycle at 95° C. for 10 min, followed by 40 cycles of 15 s at 95° C. and 1 min at 60° C. The dissociation curve was completed with one cycle of 15 s at 95° C., 1 min at 60° C., and 15 s of 95° C. No RT (NRT) and no template control (NTC) were included in each experiment as quality control steps. Target mRNA expression was analyzed using the ΔΔCt method and normalized with respect to the expression of the β-actin housekeeping gene. Cells treated with DMEM only (negative control) served as the calibrator sample in this study, and a value of 1.0 was assigned to the target gene expression of the calibrator sample. All samples were run in triplicate. A p value of 0.001 was considered to be significant.

[4] = system: AKT (Ser473) phosphorylation in L6 myotubes; assay: AKT (Ser473) phosphorylation, Western blot; format: cell-based, rat
Experimental: In some aspects, Western blot analyses were carried out. Fully differentiated L6 myotubes were cultured as described above, and whole cell extracts were prepared in ice-cold RIPA buffer supplemented with 10 mM sodium fluoride, 2 mM sodium orthovanadate, 1 mM PMSF, and protease inhibitor cocktail (Sigma) and centrifuged at 12,000 g for 20 min at 4° C. Equal amounts of protein (50 μg) from the supernatants were separated on 10% SDS polyacrylamide gels and blotted onto the nitrocellulose membrane. Western blot detection was carried out with monoclonal phospho-AKT (Ser473) antibodies according to the manufacturer's instructions (Cell Signaling Technology, Danvers, Mass.). After being washed, the blots were incubated with an anti-rabbit peroxidase-labeled secondary antibody and visualized using ECL Western Blotting Detection Reagent (GE Healthcare, Piscataway, N.J.). After being stripped, the same blots were probed with total AKT antibodies to serve as loading controls.

[5] = system: L6 rat myotubes; assay: Protein synthesis, [3H]-phenylalanine incorporation in myotubes; format: cell-based; settings: IGF-1 6.5 nM positive control, 4 h
Experimental: In some aspects, cell culture experiments were carried out. Rat L6 skeletal muscle cell line CRL-1458 was obtained from ATCC (Manassas, Va.). Myoblasts were routinely maintained in Dulbecco's modified Eagle's medium (DMEM) containing 10% FBS and 0.1% penicillin-streptomycin at 37° C. and 5% CO2. Cells were subcultured into 24-well plates for protein synthesis, degradation, and cell viability studies and into 6-well plates for Western blot analyses (Greiner Bio One, Monroe, N.C.). Once cells reached 90% confluence, differentiation was induced by lowering the serum concentration to 2%, and medium was changed every 2 days. After 7-9 days of culture the myoblasts had fused into multinucleated myotubes (Mandel et al., Nature 251:618-620, 1974). NIH 3T3 murine embryonic fibroblast cell line (ATCC #CCL-92) was maintained in DMEM and 10% FBS at 37° C. in 5% CO2, and passaged every 3-4 days.
In various aspects, protein synthesis is measured to determine the effect of brassinosteroid on a particular protein. All known methods for measuring protein synthesis are included in the methods of the disclosure. In brassinosteroid dose response studies, fully differentiated myotubes were washed with serum-free DMEM and treated in triplicate with vehicle (0.1% ethanol), increasing concentrations of HB, or 6.5 nM of insulin-like growth factor-1 (IGF-1) as a positive control. Compounds were added to serum-free medium containing 0.5 μCi/mL [^3H]-phenylalanine and incubated for 4 h. For the HB time course study, fully differentiated myotubes were treated with 3 μM HB for 1-24 h using the same culture conditions. The incubation was stopped by placing cells on ice, discarding the medium, and washing the cells extensively with ice-cold PBS to remove the non-incorporated radiolabel. Proteins were precipitated with 5% trichloroacetic acid and dissolved in 0.5N NaOH (Montgomery et al., Methods Cell. Sci. 24:123-129, 2002). Specific radioactivity of protein-bound phenylalanine was quantified using liquid scintillation counter LS 6500 (Beckman Coulter, Fullerton, Calif.) and normalized to mg of total protein determined by BCA protein assay (Pierce Biotechnology, Rockford, Ill.).
The bioactivity of HB and its analogs was evaluated by measuring increases in protein synthesis in the L6 rat skeletal muscle cells in vitro. Cells were incubated for 4 h with [^3H]-phenylalanine and treated in triplicate with vehicle (0.1% ethanol) or test compound (10 μM), and protein synthesis was measured as incorporation of [^3H]-phenylalanine into protein normalized by total protein (Table 3). Under these conditions, both HB and (22S,23S)-homocastasterone increased protein synthesis by 37.2±5.9% (p<0.001) and 41.0±2.7% (p<0.001), respectively. This protein synthesis increase compared favorably to the biological activity of IGF-1 at 6.5 nM (42.5±4.5%, p<0.001) that served as a positive control in this assay. Removal of the 2α-hydroxyl group and fluorination at C-3 in the A ring (compound IDs 3-4 in Table 3) led to about a 50% decrease in bioactivity (24.6±5.3%, p<0.01 and 22.5±2.7%, p<0.01, respectively) compared to the positive control. However, there was still an increase in protein synthesis. […] Modifications in the side chain (compound IDs 7-9 in Table 3) abolished the activity.

CCNC(=O)[C@H]1O[C@@H](n2cnc3c(N)nc(NCCc4ccc(CCC(=O)O)cc4)nc32)[C@H](O)[C@@H]1O [CGS-21680, reference compound]
ICAM-1 mRNA in wound tissue [1]: no effect
TGF-β mRNA in wound tissue [1]: no effect
TNF-α mRNA in wound tissue [1]: remarkable suppression
CT50, time at which 50% of the cutaneous wound is closed [2]: 6.2 ± 0.4 days

CC1=C(/C=C/C(C)=C/C=C/C(C)=C/C(=O)O)C(C)(C)CCC1 [Retinoic Acid, reference compound]
Increase in elastin mRNA levels (-fold over control) ([3]; 5 μM): 2.9** fold
Increase in elastin mRNA levels (-fold over control) ([3]; 10 μM): 2.7** fold

IGF-1: Insulin-like growth factor 1, positive control for protein synthesis
time to AKT phosphorylation [4]: ≤ 10 min
Protein synthesis (% increase over control) [5]: 42.5±4.5%
